{"source": "patent US6777422B2", "about": "“Substituted tetrahydroisoquinolines as C5a receptor modulators” (Neurogen Corp., priority 2002, dated 2004)"}
{"target": "T1, human C5a receptor (Homo sapiens, UniProt P21730)", "T1 construct": "endogenous in cells; host or cells: U937 cells differentiated with 1 mM dibutyryl cAMP", "T1 sequence (P21730 1-350)": "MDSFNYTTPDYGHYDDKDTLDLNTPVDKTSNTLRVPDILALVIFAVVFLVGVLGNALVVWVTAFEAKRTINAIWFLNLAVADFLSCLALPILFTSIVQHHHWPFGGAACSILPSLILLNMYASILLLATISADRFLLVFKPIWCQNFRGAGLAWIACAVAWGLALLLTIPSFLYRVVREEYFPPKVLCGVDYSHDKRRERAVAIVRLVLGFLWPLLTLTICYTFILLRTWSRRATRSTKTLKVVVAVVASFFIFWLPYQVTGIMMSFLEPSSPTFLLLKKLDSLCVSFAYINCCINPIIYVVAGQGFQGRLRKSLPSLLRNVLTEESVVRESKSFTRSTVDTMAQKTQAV", "assay": "C5a receptor mediated calcium mobilization assay (Example 20)", "assay_type": "cell-based", "details": "differentiated U937 cells, read-out: Ca2+ (Ki in the standard assay of C5a receptor mediated calcium mobilization)", "experimental": "Calcium Mobilization Assays\nU937 cells are grown in differentiation media (1 mM dibutyryl cAMP in RPMI 1640 medium containing 10% fetal bovine serum) for 48 hrs at 37° C. then reseeded onto 96-well plates suitable for use in a FLIPR™ Plate Reader (Molecular Devices Corp., Sunnyvale Calif.). Cells are grown an additional 24 hours (to 70-90% confluence) before the assay. The cells are then washed once with Krebs Ringer solution. FLUO-3 calcium sensitive dye (Molecular Probes, Inc. Eugene, Oreg.) is added to 10 μg/mL and incubated with the cells at room temperature for 1 to 2 hours. The 96 well plates are then washed to remove excess dye. Fluorescence responses, measured by excitation at 480 nm and emission at 530 nm, are monitored upon the addition of human C5a to the cells to a final concentration of 0.01-30.0 nM, using the FLIPR™ device (Molecular Devices).\nC. Assays for the Identification of Receptor Modulatory Agents: Antagonists and Agonists\nThe calcium mobilization assay described above may be readily adapted for identifying test compounds that have agonist or antagonist activity at the human C5a receptor.\nFor example, in order to identify antagonist compounds, differentiated U937 cells are washed and incubated with Fluo-3 dye as described above. One hour prior to measuring the fluorescence signal, a subset of the cells is incubated with 1 μM of at least one compound to be tested. The fluorescence response upon the subsequent addition of 0.3 nM (final concentration) human recombinant C5a is monitored using the FLIPR™ plate reader. Antagonist compounds elicit at least a 2-fold decrease in the fluorescence response relative to that measured in the presence of human C5a alone. Preferred antagonist compounds elicit at least a 5-fold, preferably at least a 10-fold, and more preferably at least a 20-fold decrease in the fluorescence response relative to that measured in the presence of human C5a alone.", "units": {"Ki": "nM"}}
{"smiles": "O=C(CN1CCc2ccccc2[C@H]1c1ccccc1Br)N(Cc1ccccc1F)C1Cc2ccccc2C1", "note": "[Compound 40, 2-[(1S)-1-(2-bromophenyl)-3,4-dihydroisoquinolin-2(1H)-yl]-N-(indan-2-yl)-N-(2-fluorobenzyl)acetamide]", "Ki": "< 1000"}
{"smiles": "O=C(CN1CCc2ccccc2[C@H]1c1ccccc1C(F)(F)F)N(Cc1ccccc1F)C1Cc2ccccc2C1", "note": "[Compound 41, N-(indan-2-yl)-N-(2-fluorobenzyl)-2-[(1S)-1-[2-(trifluoromethyl)phenyl]-3,4-dihydroisoquinolin-2(1H)-yl]acetamide]", "Ki": "< 1000"}
{"smiles": "Cc1ccccc1[C@@H]1c2ccccc2CCN1[C@@H](C)C(=O)N(Cc1ccccc1F)C1Cc2ccccc2C1", "note": "[Compound 42, (2S)-N-(indan-2-yl)-N-(2-fluorobenzyl)-2-[(1R)-1-(2-methylphenyl)-3,4-dihydroisoquinolin-2(1H)-yl]propanamide]", "Ki": "< 1000"}
{"smiles": "O=C(CN1CCc2ccccc2C1c1ccccc1-c1ccccc1)N(Cc1ccccc1F)C1Cc2ccccc2C1", "note": "(stereo not shown) [Compound 43, 2-[1-(1,1′-biphenyl-2-yl)-3,4-dihydroisoquinolin-2(1H)-yl]-N-(indan-2-yl)-N-(2-fluorobenzyl)acetamide]", "Ki": "< 1000"}
{"smiles": "O=C(CN1CCc2ccccc2C1c1cccc2ccccc12)N(Cc1ccccc1F)C1Cc2ccccc2C1", "note": "(stereo not shown) [Compound 44, N-(indan-2-yl)-N-(2-fluorobenzyl)-2-[1-(1-naphthyl)-3,4-dihydroisoquinolin-2(1H)-yl]acetamide]", "Ki": "< 1000"}
{"smiles": "O=C(CN1CCc2ccccc2C12CCc1ccccc12)N(Cc1ccccc1F)C1Cc2ccccc2C1", "note": "(stereo not shown) [Compound 45]", "Ki": "< 1000"}
{"smiles": "Cc1cccc(C2c3ccccc3CCN2CC(=O)N(Cc2ccccc2F)C2Cc3ccccc3C2)c1Cl", "note": "(stereo not shown) [Compound 47, 2-[1-(2-chloro-3-methylphenyl)-3,4-dihydroisoquinolin-2(1H)-yl]-N-(indan-2-yl)-N-(2-fluorobenzyl)acetamide]", "Ki": "< 1000"}
{"smiles": "Cc1c(F)cccc1C1c2ccccc2CCN1CC(=O)N(Cc1ccccc1F)C1Cc2ccccc2C1", "note": "(stereo not shown) [Compound 48, N-(indan-2-yl)-N-(2-fluorobenzyl)-2-[1-(3-fluoro-2-methylphenyl)-3,4-dihydroisoquinolin-2(1H)-yl]acetamide]", "Ki": "< 1000"}
{"smiles": "O=C(CN1CCc2ccccc2C1c1cccc(C(F)(F)F)c1)N(Cc1ccccc1F)C1Cc2ccccc2C1", "note": "(stereo not shown) [Compound 50, N-(indan-2-yl)-N-(2-fluorobenzyl)-2-[1-[3-(trifluoromethyl)phenyl]-3,4-dihydroisoquinolin-2(1H)-yl]acetamide]", "Ki": "< 1000"}
{"smiles": "O=C(CN1CCc2ccccc2C1c1cccc2c1OCC2)N(Cc1ccccc1F)C1Cc2ccccc2C1", "note": "(stereo not shown) [Compound 53, 2-[1-(2,3-dihydro-1-benzofuran-7-yl)-3,4-dihydroisoquinolin-2(1H)-yl]-N-(indan-2-yl)-N-(2-fluorobenzyl)acetamide]", "Ki": "< 1000"}
{"smiles": "C[C@H]1CN(CC(=O)N(Cc2ccccc2F)C2Cc3ccccc3C2)[C@@H](c2ccccc2F)c2ccccc21", "note": "[Compound 54, N(indan-2-yl)-N-(2-fluorobenzyl)-2-[(1R,4R)-1-(2-fluorophenyl)-4-methyl-3,4-dihydroisoquinolin-2(1H)-yl]acetamide]", "Ki": "< 1000"}
{"smiles": "Cc1cccc(C)c1C1c2ccccc2CCN1CC(=O)N(Cc1ccccc1F)C1Cc2ccccc2C1", "note": "(stereo not shown) [Compound 56, N-(indan-2-yl)-2-[1-(2,6-dimethylphenyl)-3,4-dihydroisoquinolin-2(1H)-yl]-N-(2-fluorobenzyl)acetamide]", "Ki": "< 1000"}
{"smiles": "Cc1ccc(F)cc1C1c2ccccc2CCN1CC(=O)N(Cc1ccccc1F)C1Cc2ccccc2C1", "note": "(stereo not shown) [Compound 57, N-(indan-2-yl)-N-(2-fluorobenzyl)-2-[1-(5-fluoro-2-methylphenyl)-3,4-dihydroisoquinolin-2(1H)-yl]acetamide]", "Ki": "< 1000"}
{"smiles": "O=C(CN1CCc2ccccc2[C@@H]1c1ccccc1F)N(Cc1ccccc1F)C1Cc2ccccc2C1", "note": "[Compound 58, N-(indan-2-yl)-N-(2-fluorobenzyl)-2-[(1R)-1-(2-fluorophenyl)-3,4-dihydroisoquinolin-2(1H)-yl]acetamide]", "Ki": "< 1000"}
{"smiles": "C[C@H]1CN(CC(=O)N(Cc2ccccc2F)C2Cc3ccccc3C2)[C@@H](c2ccccc2Cl)c2ccccc21", "note": "[Compound 59, 2-[(1R,4R)-1-(2-chlorophenyl)-4-methyl-3,4-dihydroisoquinolin-2(1H)-yl]-N-(indan-2-yl)-N-(2-fluorobenzyl)acetamide]", "Ki": "< 1000"}
{"smiles": "C[C@@H](C(=O)N(Cc1ccccc1F)C1Cc2ccccc2C1)N1CCc2ccccc2[C@@H]1c1ccccc1F", "note": "[Compound 60, (2S)-N-(indan-2-yl)-N-(2-fluorobenzyl)-2-[(1R)-1-(2-fluorophenyl)-3,4-dihydroisoquinolin-2(1H)-yl]propanamide]", "Ki": "< 1000"}
{"smiles": "Cc1ccc(C2c3ccccc3CCN2CC(=O)N(Cc2ccccc2F)C2Cc3ccccc3C2)cc1F", "note": "(stereo not shown) [Compound 61, N-(indan-2-yl)-N-(2-fluorobenzyl)-2-[1-(3-fluoro-4-methylphenyl)-3,4-dihydroisoquinolin-2(1H)-yl]acetamide]", "Ki": "< 1000"}
{"smiles": "O=C(CN1CCc2ccccc2C1c1cccc2cccnc12)N(Cc1ccccc1F)C1Cc2ccccc2C1", "note": "(stereo not shown) [Compound 62, N-(indan-2-yl)-N-(2-fluorobenzyl)-2-(1-quinolin-8-yl-3,4-dihydroisoquinolin-2(1H)-yl)acetamide]", "Ki": "< 1000"}
{"smiles": "C[C@@H](C(=O)N(Cc1ccccc1F)C1Cc2ccccc2C1)N1CCc2ccccc2[C@@H]1c1cccc2ccccc12", "note": "[Compound 63, (2S)-N-(indan-2-yl)-N-(2-fluorobenzyl)-2-[(1R)-1-(1-naphthyl)-3,4-dihydroisoquinolin-2(1H)-yl]propanamide]", "Ki": "< 1000"}
{"smiles": "C[C@@H](C(=O)N(Cc1ccccc1F)C1Cc2ccccc2C1)N1CCc2ccccc2[C@@H]1c1ccccc1Cl", "note": "[Compound 64, (2S)-2-[(1R)-1-(2-chlorophenyl)-3,4-dihydroisoquinolin-2(1H)-yl]-N-(indan-2-yl)-N-(2-fluorobenzyl)propanamide]", "Ki": "< 1000"}
{"smiles": "Cc1c(Cl)cccc1C1c2ccccc2CCN1CC(=O)N(Cc1ccccc1F)C1Cc2ccccc2C1", "note": "(stereo not shown) [Compound 65, 2-[1-(3-chloro-2-methylphenyl)-3,4-dihydroisoquinolin-2(1H)-yl]-N-(indan-2-yl)-N-(2-fluorobenzyl)acetamide]", "Ki": "< 1000"}
{"smiles": "Cc1ccc(F)c(C2c3ccccc3CCN2CC(=O)N(Cc2ccccc2F)C2Cc3ccccc3C2)c1", "note": "(stereo not shown) [Compound 66, N-(indan-2-yl)-N-(2-fluorobenzyl)-2-[1-(2-fluoro-5-methylphenyl)-3,4-dihydroisoquinolin-2(1H)-yl]acetamide]", "Ki": "< 1000"}
{"smiles": "Cc1cccc([C@H]2c3ccccc3CCN2[C@@H](C)C(=O)N(Cc2ccccc2F)C2Cc3ccccc3C2)c1C", "note": "[Compound 67, (2S)-N-(indan-2-yl)-2-[(1R)-1-(2,3-dimethylphenyl)-3,4-dihydroisoquinolin-2(1H)-yl]-N-(2-fluorobenzyl)propanamide]", "Ki": "< 1000"}
{"smiles": "Cc1cccc([C@@H]2c3ccccc3CCN2[C@@H](C)C(=O)N(Cc2ccccc2F)C2Cc3ccccc3C2)c1C", "note": "[Compound 68, (2S)-N-(indan-2-yl)-2-[(1S)-1-(2,3-dimethylphenyl)-3,4-dihydroisoquinolin-2(1H)-yl]-N-(2-fluorobenzyl)propanamide]", "Ki": "< 1000"}
{"smiles": "C[C@@H](C(=O)N(Cc1ccccc1F)C1Cc2ccccc2C1)N1CCc2ccccc2[C@@H]1c1ccccc1C(F)(F)F", "note": "[Compound 69, (2S)-N-(indan-2-yl)-N-(2-fluorobenzyl)-2-[(1R)-1-[2-(trifluoromethyl)phenyl]-3,4-dihydroisoquinolin-2(1H)-yl]propanamide]", "Ki": "< 1000"}
{"smiles": "C[C@@H](C(=O)N(Cc1ccccc1F)C1Cc2ccccc2C1)N1CCc2ccccc2[C@@H]1c1ccccc1Br", "note": "[Compound 70, (2S)-2-[(1R)-1-(2-bromophenyl)-3,4-dihydroisoquinolin-2(1H)-yl]-N-(indan-2-yl)-N-(2-fluorobenzyl)propanamide]", "Ki": "< 1000"}
{"smiles": "Cc1cccc(C)c1[C@H]1c2ccccc2CCN1[C@@H](C)C(=O)N(Cc1ccccc1F)C1Cc2ccccc2C1", "note": "[Compound 71, (2S)-N-(indan-2-yl)-2-[(1R)-1-(2,6-dimethylphenyl)-3,4-dihydroisoquinolin-2(1H)-yl]-N-(2-fluorobenzyl)propanamide]", "Ki": "< 1000"}
{"smiles": "O=C(CN1CCc2ccccc2C1c1cccc(F)c1F)N(Cc1ccccc1F)C1Cc2ccccc2C1", "note": "(stereo not shown) [Compound 74, 2-[1-(2,3-difluorophenyl)-3,4-dihydroisoquinolin-2(1H)-yl]-N-(indan-2-yl)-N-(2-fluorobenzyl)acetamide]", "Ki": "< 1000"}
